Reference: EP3858357A1, “USE OF AZOLE COMPOUNDS TO STIMULATE THE IMMUNE SYSTEM AND AS INHIBITORS FOR S-PLA2GIB” (Diaccurate, priority 2020, dated 2021)

Assays:
[1] = molecular target: T1, sPLA2hGIIA (Homo sapiens, UniProt P14555); test: Inhibition of sPLA2hGIIA enzymatic activity (method of Rouault et al., 2006); assay type: biochemical; details: 3-300 µM tested; Figure 2B
T1 sequence (P14555 21-144): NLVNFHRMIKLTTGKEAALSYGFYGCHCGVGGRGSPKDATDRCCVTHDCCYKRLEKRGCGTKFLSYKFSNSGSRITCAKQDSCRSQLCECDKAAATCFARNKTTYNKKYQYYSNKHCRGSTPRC

[2] = molecular target: binding between mPLA2R1 receptor and sPLA2hGIB (Homo sapiens, UniProt P04054); test: AlphaLISA-based competition test of sPLA2hGIB binding to soluble HA-tagged mPLA2R1; details: decrease of binding between mPLA2R1 and sPLA2hGIB; Figure 3B
Description: (§1) • Figure 1: Screening of the inhibition of sPLA2hGIB enzymatic activity by small molecules previously identified by in silico screening. 0% represents non-specific hydrolysis in the absence of sPLA2hGIB, and 100 % represents sPLA2hGIB activity with DMSO (1 %). […] The condition 'no hGIB' (0%) represents the non-specific hydrolysis of phospholipids present in E. coli membranes radio-labeled with [^3H]oleate. […] HA-tagged receptors are in the presence of sPLA2hGIB or sPLA2hGIIF, then in the presence of a specific biotinylated anti-sPLA2 antibody; "acceptor" beads are coupled to an anti-HA antibody (PerkinElmer) and "donor" beads are coupled to Streptavidine (PerkinElmer).
The inventors have developed and used an AlphaLISA®-based test (Figure 3A) capable of detecting binding between the soluble form of mPLA2R1 (which includes the whole extracellular part), and sPLA2hGIB. […]
HA-tagged receptors are in the presence of sPLA2 of interest, then in the presence of a specific biotinylated anti-sPLA2 antibody; "acceptor" beads are coupled to an anti-HA antibody (PerkinElmer) and "donor" beads are coupled to Streptavidine (PerkinElmer). The binding of a HA-tagged receptor and a sPLA2 of interest in solution, results in a proximity of donor and acceptor beads, allowing for energy transfer and the production of a light signal, which is then measured.

[3] = molecular target: T2, sPLA2hGX (Homo sapiens, UniProt O15496); test: Inhibition of sPLA2hGX enzymatic activity (method of Rouault et al., 2006); assay type: biochemical; details: 3-300 µM tested; Figure 2B
T2 sequence (O15496 43-165): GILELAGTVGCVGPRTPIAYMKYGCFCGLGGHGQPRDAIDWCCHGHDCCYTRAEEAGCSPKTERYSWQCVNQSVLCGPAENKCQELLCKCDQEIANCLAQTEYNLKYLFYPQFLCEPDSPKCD

[4] = molecular target: sPLA2hGV (Homo sapiens, UniProt P39877); test: Inhibition of sPLA2hGV enzymatic activity (method of Rouault et al., 2006); assay type: biochemical; details: 3-300 µM tested; Figure 2B
[5] = molecular target: sPLA2hGIB (Homo sapiens, UniProt P04054); test: Inhibition of sPLA2hGIB enzymatic activity, [3H]oleate-labelled E. coli membranes (method of Rouault et al., 2006); assay type: biochemical; details: sPLA2hGIB (2 pM) pre-incubated with 10, 30, 100, 300 µM; Figure 2A
Description: as §1
The condition 'no hGIB' (0%) represents the non-specific hydrolysis of phospholipids present in E. coli membranes radio-labeled with [^3H]oleate.

Sequence of sPLA2hGV (P39877 21-138): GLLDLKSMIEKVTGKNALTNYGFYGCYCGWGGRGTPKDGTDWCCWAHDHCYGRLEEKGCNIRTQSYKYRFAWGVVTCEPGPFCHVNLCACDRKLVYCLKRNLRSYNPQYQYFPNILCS
Sequence of binding between mPLA2R1 receptor and sPLA2hGIB (P04054 23-148): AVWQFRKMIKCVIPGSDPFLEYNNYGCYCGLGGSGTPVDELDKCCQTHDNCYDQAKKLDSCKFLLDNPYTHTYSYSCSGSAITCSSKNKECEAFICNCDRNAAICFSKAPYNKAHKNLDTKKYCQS
Sequence of sPLA2hGIB (P04054 23-148): as above

IC50 [1]: > 300 µM
IC50 [2]: ~100 µM
IC50 [3]: ~150 µM
IC50 [4]: > 300 µM
IC50 [5]: 100 to 150 µM
Structure (SMILES): CC(C)N1CCN(c2ccc(OCC3COC(Cn4cncn4)(c4ccc(Cl)cc4Cl)O3)cc2)CC1 [Terconazole, 1-{[(2S,4S)-2-(2,4-dichlorophenyl)-4-{[p-(4-isopropyl-1-piperazinyl)phenoxy]methyl}-1,3-dioxolan-2-yl]methyl}-1H-1,2,4-azole]
